According to patent US9513294B2, “Megastokes amino-triazolyl-BODIPY compounds and applications to live neuron staining and human serum albumin FA1 drug site probing” (National University of Singapore, priority 2012, dated 2016):
Each block holds one molecule with its values, some of them ahead of it.

Assays:
[1] = Absorbance and fluorescence emission spectra (SpectraMax M2); format: physicochemical; conditions: for λmax Abs. (nm) / λmax Em. (nm): MKAC compound library; for λmax Abs. (nm) / λmax Absorp. (nm): absorbance maximum; for λmax Em. (nm) / λmax Emission (nm): fluorescence emission maximum; for λmax Absorp. (nm) / λmax Emission (nm): MKCA compound library
Experimental: BDC-8 (Blue): absorbance λmax=473 nm, emission λmax=585 nm; MK101-8 (Green): absorbance λmax=474 nm, emission λmax=563 nm; MKHA374-48 (Yellow): absorbance λmax=468 nm, λem=557 nm. The corresponding spectra of a reported BODIPY (BD-27; Red) are also included for comparison: absorbance λmax=551 nm, emission λmax=568 nm. The structures of BDC-8, MK101-8, MKHA374-48 and BD-27 are also depicted.
(§1) ^1H-NMR, ^19F-NMR and ^13C-NMR spectra were recorded on Bruker ACF300 (300 MHz), DPX300 (300 MHz) and AMX500 (500 MHz) spectrometers. High resolution mass spectra (ESI) were obtained on a Finnigan/MAT 95XL-T spectrometer. Spectroscopic and quantum yield data were measured on a SpectraMax M2 spectrophotometer (Molecular Devices). Data analysis was performed using GraphPrism 5.0. Analytical characterization was performed on a HPLC-MS (Agilent-1200 series) with a DAD detector and a single quadrupole mass spectrometer (6130 series) with an ESI probe. Analytical HPLC method: eluents, A: H2O (0.1% HCOOH), B: CH3CN (0.1% HCOOH), gradient 5% B to 95% B (10 min). Reverse-phase Phenomenex C18 Luna column (4.6×50 mm^2, 3.5 […]), flow rate: 1 mL/min.

[2] = Quantum yield measurements versus Acridine Yellow in EtOH; format: physicochemical; conditions: for φ (quantum yield): excitation 460 nm; for φ (%): quantum yield
Experimental: as §1
Quantum yields were calculated by measuring the integrated emission area of the fluorescent spectra and comparing to the area measured for Acridine Yellow in EtOH when excited at 460 nm (Φfluorescence^AcridineYellow=0.47). Quantum yields for the amino-triazolyl-BODIPYs were calculated using the equation below, where F represents the area of fluorescent emission, η is the refractive index of the solvent, and Abs is absorbance at the excitation wavelength selected for standards and samples. Emission was integrated between 510 and 700 nm.

- λmax Absorp. ([1]; BDC library, Table 2): 469 nm
- λmax Emission ([1]; BDC library, Table 2): 549 nm
- φ (quantum yield) ([2]; BDC library, Table 2): 0.19%
Structure (SMILES): Nc1ccc(C2=C3C=CC(N4CCCCC4)=[N+]3[B-](F)(F)n3c2ccc3-n2cc(-c3ccc(OC(F)(F)F)cc3)nn2)cc1 [BDC-15]

- λmax Absorp. ([1]; MK library, Table 5): 474 nm
- λmax Emission ([1]; MK library, Table 5): 565 nm
- φ (quantum yield) ([2]; MK library, Table 5): 0.33%
Structure (SMILES): COc1ccc(OC)c(CNC2=[N+]3C(=C(c4ccc(N)cc4)c4ccc(-n5cc(CC6CCCCC6)nn5)n4[B-]3(F)F)C=C2)c1 [MK181-8]

- λmax Absorp. ([1]; MK library, Table 5): 477 nm
- λmax Emission ([1]; MK library, Table 5): 579 nm
- φ (quantum yield) ([2]; MK library, Table 5): 0.39%
Structure (SMILES): CN(Cc1ccccc1)C1=[N+]2C(=C(c3ccc(N)cc3)c3ccc(-n4cc(C5CCCC5)nn4)n3[B-]2(F)F)C=C1 [MK195-5]

- λmax Absorp. ([1]; BDCAC library, Table 3): 468 nm
- λmax Emission ([1]; BDCAC library, Table 3): 587 nm
- φ (quantum yield) ([2]; BDCAC library, Table 3): 0.8%
Structure (SMILES): CCCCCC(O)c1cn(-c2ccc3n2[B-](F)(F)[N+]2=C(N4CCCCC4)C=CC2=C3c2ccc(NC(C)=O)cc2)nn1 (racemic) [BDCAC-69]

- λmax Abs. (nm) [1]: 465 nm
- λmax Em. (nm) [1]: 561 nm
- φ (%) ([2]; MKAC compound library): 23.42%
Structure (SMILES): CCCC(C)c1cn(-c2ccc3n2[B-](F)(F)[N+]2=C(NCc4ccccc4OCC)C=CC2=C3c2ccc(NC(C)=O)cc2)nn1 (stereo not drawn) [MKAC103-3]

- λmax Absorp. ([1]; MK library, Table 5): 472 nm
- λmax Emission ([1]; MK library, Table 5): 560 nm
- φ (quantum yield) ([2]; MK library, Table 5): 2.03%
Structure (SMILES): Cc1ccccc1CNC1=[N+]2C(=C(c3ccc(N)cc3)c3ccc(-n4cc(CCc5ccccc5)nn4)n3[B-]2(F)F)C=C1 [MK101-19]

- λmax Absorp. ([1]; MK library, Table 5): 476 nm
- λmax Emission ([1]; MK library, Table 5): 567 nm
- φ (quantum yield) ([2]; MK library, Table 5): 0.68%
Structure (SMILES): Nc1ccc(C2=C3C=CC(NCc4cc(F)cc(F)c4)=[N+]3[B-](F)(F)n3c2ccc3-n2cc(C3CCCC3)nn2)cc1 [MK412-5]

- λmax Absorp. ([1]; BDCAC library, Table 3): 465 nm
- λmax Emission ([1]; BDCAC library, Table 3): 584 nm
- φ (quantum yield) ([2]; BDCAC library, Table 3): 0.8%
Structure (SMILES): CC(=O)Nc1ccc(C2=C3C=CC(N4CCCCC4)=[N+]3[B-](F)(F)n3c2ccc3-n2cc(COc3ccccc3)nn2)cc1 [BDCAC-17]

- λmax Abs. (nm) [1]: 464 nm
- λmax Em. (nm) [1]: 560 nm
- φ (%) ([2]; MKAC compound library): 23.26%
Structure (SMILES): CC(=O)Nc1ccc(C2=C3C=CC(NCc4ccccc4C)=[N+]3[B-](F)(F)n3c2ccc3-n2cc(CCc3ccccc3)nn2)cc1 [MKAC101-19]

- λmax Absorp. (nm) [1]: 470 nm
- λmax Emission (nm) [1]: 587 nm
- φ (%) ([2]; MKCA compound library): 3.11%
Structure (SMILES): O=C(CCl)Nc1ccc(C2=C3C=CC(N4CCc5ccccc5C4)=[N+]3[B-](F)(F)n3c2ccc3-n2cc(C3CCCC3)nn2)cc1 [MKCA66-5]

- λmax Abs. (nm) [1]: 461 nm
- λmax Em. (nm) [1]: 562 nm
- φ (%) ([2]; MKAC compound library): 24.08%
Structure (SMILES): CCCCCC(O)c1cn(-c2ccc3n2[B-](F)(F)[N+]2=C(NCc4ccccc4C)C=CC2=C3c2ccc(NC(C)=O)cc2)nn1 (stereo not drawn) [MKAC101-69]

- λmax Abs. (nm) [1]: 469 nm
- λmax Em. (nm) [1]: 578 nm
- φ (%) ([2]; MKAC compound library): 2.20%
Structure (SMILES): CC(=O)Nc1ccc(C2=C3C=CC(N4CCc5ccccc5C4)=[N+]3[B-](F)(F)n3c2ccc3-n2cc(CC3CCCCC3)nn2)cc1 [MKAC66-8]

- λmax Absorp. ([1]; BDCCA library, Table 4): 458 nm
- λmax Emission ([1]; BDCCA library, Table 4): 556 nm
- φ (quantum yield) ([2]; BDCCA library, Table 4): 2.6%
Structure (SMILES): O=C(CCl)Nc1ccc(C2=C3C=CC(N4CCCCC4)=[N+]3[B-](F)(F)n3c2ccc3-n2cc(-c3cc(C(F)(F)F)cc(C(F)(F)F)c3)nn2)cc1 [BDCCA-30]

- λmax Abs. (nm) [1]: 467 nm
- λmax Em. (nm) [1]: 586 nm
- φ (%) ([2]; MKAC compound library): 1.33%
Structure (SMILES): CC(=O)Nc1ccc(C2=C3C=CC(N4CC(C)OC(C)C4)=[N+]3[B-](F)(F)n3c2ccc3-n2cc(CO)nn2)cc1 (stereo not drawn) [MKAC20-70]

- λmax Abs. (nm) [1]: 466 nm
- λmax Em. (nm) [1]: 585 nm
- φ (%) ([2]; MKAC compound library): 3.64%
Structure (SMILES): CC(=O)Nc1ccc(C2=C3C=CC(N4CC(C)OC(C)C4)=[N+]3[B-](F)(F)n3c2ccc3-n2cc(C3CC3)nn2)cc1 (stereo not drawn) [MKAC20-4]

- λmax Abs. (nm) [1]: 464 nm
- λmax Em. (nm) [1]: 565 nm
- φ (%) ([2]; MKAC compound library): 24.86%
Structure (SMILES): CCOc1ccccc1CNC1=[N+]2C(=C(c3ccc(NC(C)=O)cc3)c3ccc(-n4cc(C5CC5)nn4)n3[B-]2(F)F)C=C1 [MKAC103-4]

- λmax Absorp. (nm) [1]: 465 nm
- λmax Emission (nm) [1]: 562 nm
- φ (%) ([2]; MKCA compound library): 30.05%
Structure (SMILES): CCCCCC(O)c1cn(-c2ccc3n2[B-](F)(F)[N+]2=C(NCc4cc(F)cc(F)c4)C=CC2=C3c2ccc(NC(=O)CCl)cc2)nn1 (stereo not drawn) [MKCA412-69]

- λmax Absorp. ([1]; MK library, Table 5): 476 nm
- λmax Emission ([1]; MK library, Table 5): 564 nm
- φ (quantum yield) ([2]; MK library, Table 5): 0.86%
Structure (SMILES): CC(C)Cc1cn(-c2ccc3n2[B-](F)(F)[N+]2=C(NCc4cc(F)cc(F)c4)C=CC2=C3c2ccc(N)cc2)nn1 [MK412-43]
